Measured values taken from US20110070232A1, “Combination Therapy with an Antitumor Alkaloid” (Pharma Mar, S.A., priority 2008, published 2011).
Read-outs that look alike come from different tables or passages of the source.

Experiments:
Assay type in all cases: in vivo, mice
[1] = tested on: CaLu-6 tumors; details: PM00104 0.9 mg/kg/day IV and/or Gemcitabine 180 mg/kg/day IP
Procedure: Female athymic nude mice (Harlan Sprague Dawley, Madison, Wis.) were utilized for all experiments. Animals were housed in ventilated rack caging with food and water ad libitum. The mice were acclimated for at least 5 days prior to tumor implantation.
The tumor model used in this study was CaLu-6 cell line which is a human lung cancer cell line obtained from the ATCC (Manassas, Va.). CaLu-6 cells were grown in Eagle's Minimum Essential Medium (MEM), 10% FBS and 2 mM L-glutamine. Cells from in vitro passage 12 were implanted SC into study mice using a 1 ml syringe with a 13G trocar: 5×10^6 cells/mouse in 0.2 ml 50% Matrigel/50% MEM medium of CaLu-6 without serum or antibiotics. Bacterial culture was taken on cells used to implant the study.
When tumors reached an appropriated volume, within the size range of 99±17 mm^3 (mean±SD), mice were randomized into the treatment and control groups based on tumor weight by using LabCat® In Life module V 8.0 SP1 tumor tracking and measurement software. Treatments were initiated on DPI 9.
Tumor size measurements were recorded 2-3 times/week from the treatment initiation until the termination of the study.
(§1) Mean, standard deviation and standard error of the mean were determined for tumor volume for all animal groups at all assessments. Student's t test was performed on tumor volumes at each measurement day, including at the end of the study, to determine whether there were any statistically significant differences between combination treatment groups and single monotherapy treatment groups.

[2] = tested on: BxPC-3 tumors; details: mg/kg/day: PM00104 0.90 IV
Procedure: (§2) Female CB17.SCID mice (Charles River Lab.) were utilized for all experiments. Animals were housed in ventilated rack caging with food and water ad libitum. The mice were acclimated for at least 5 days prior to tumor implantation with a tumor cell suspension.
(§3) The tumor model used in these studies was BxPC-3 cell line, which was obtained from the ATCC (Manassas, Va.).
Treatments were initiated on DPI 9.
(§4) Tumor size measurements were recorded twice weekly from the treatment initiation until the termination of the study.
as §1

[3] = tested on: MRI-H-254 tumors
Procedure: Female athymic nude mice (Harlan Sprague Dawley, Madison, Wis.) were utilized for all experiments. Animals were housed in ventilated rack caging with food and water ad libitum. The mice were acclimated for at least 5 days prior to tumor implantation with tumor fragments.
Bacterial culture was taken on cells used to implant the study.
Treatments were initiated on DPI 20.
5-FU was provided in the form of injection vials which was diluted with 0.9% sterile Saline.
as §4, §1

[4] = tested on: BxPC-3 tumors; details: mg/kg/day: PM00104 0.90 IV, gemcitabine 180 IP
Procedure: as §2, §3
Bacterial cultures were performed on aliquots of the cells prepared for implantation.
Treatments were initiated on DPI 14.
as §4, §1

[5] = PM00104 0.90 IV, 5-FU 100 IP mg/kg/day (G2, G3, G5), DPI 20, 27, 34

## COc1c(C)cc2c(c1O)[C@@H]1[C@@H]3Cc4c(OC(C)=O)c(C)c5c(c4[C@H](CNC(=O)/C=C/c4cccc(C(F)(F)F)c4)N3[C@@H](O)[C@H](C2)N1C)OCO5 [PM00104]
[1]
  % T/C on day 9: 102.6%
  % T/C on day 12: 77.9%
  % T/C on day 15: 78.8%
  % T/C on day 19: 90.6%
  % T/C on day 22: 87.8%
  % T/C on day 26: 87.6%
  % T/C on day 29: 73.5%
  % T/C on day 34: 75.8%
  % T/C on day 40: 88.3%
[2]; day 9, erlotinib 15 PO
  % Inhibition: −3.8%
[2]; day 9, erlotinib 30 PO
  % Inhibition: −3.8%
[2]; day 9, erlotinib 50 PO
  % Inhibition: −3.8%
  % T/C on day: 103.8%
[2]; day 12, erlotinib 15 PO
  % Inhibition: 10.0%
[2]; day 12, erlotinib 30 PO
  % Inhibition: 10.0%
[2]; day 12, erlotinib 50 PO
  % Inhibition: 10.0%
  % T/C on day: 90.0%
[2]; day 15, erlotinib 15 PO
  % Inhibition: −20.0%
[2]; day 15, erlotinib 30 PO
  % Inhibition: −20.0%
[2]; day 15, erlotinib 50 PO
  % Inhibition: −20.0%
  % T/C on day: 120.0%
[2]; day 19, erlotinib 15 PO
  % Inhibition: 1.4%
[2]; day 19, erlotinib 30 PO
  % Inhibition: 1.4%
[2]; day 19, erlotinib 50 PO
  % Inhibition: 1.4%
  % T/C on day: 98.6%
[2]; day 21, erlotinib 15 PO
  % Inhibition: 30.1%
[2]; day 21, erlotinib 30 PO
  % Inhibition: 30.1%
[2]; day 21, erlotinib 50 PO
  % Inhibition: 30.1%
  % T/C on day: 69.9%
[2]; day 26, erlotinib 15 PO
  % Inhibition: 17.4%
[2]; day 26, erlotinib 30 PO
  % Inhibition: 17.4%
[2]; day 26, erlotinib 50 PO
  % Inhibition: 17.4%
  % T/C on day: 82.6%
[2]; day 29, erlotinib 15 PO
  % Inhibition: 30.6%
[2]; day 29, erlotinib 30 PO
  % Inhibition: 30.6%
[2]; day 29, erlotinib 50 PO
  % Inhibition: 30.6%
  % T/C on day: 69.4%
[2]; day 33, erlotinib 15 PO
  % Inhibition: 17.8%
[2]; day 33, erlotinib 30 PO
  % Inhibition: 17.8%
[2]; day 33, erlotinib 50 PO
  % Inhibition: 17.8%
  % T/C on day: 82.2%
[2]; day 40, erlotinib 15 PO
  % Inhibition: 14.2%
[2]; day 40, erlotinib 30 PO
  % Inhibition: 14.2%
[2]; day 40, erlotinib 50 PO
  % Inhibition: 14.2%
  % T/C on day: 85.8%
[3]; [5]
  % T/C on day 20: 98.7%
  % T/C on day 23: 95.9%
  % T/C on day 26: 83.7%
  % T/C on day 30: 75.3%
  % T/C on day 34: 53.1%
  % T/C on day 36: 46.5%
  % T/C on day 43: 26.9%
  % T/C on day 49: 36.7%
  % T/C on day 56: 50.6%
  % T/C on day 63: 81.3%
[3]; day 20, PM00104 0.9 and 5-FU 50 mg/kg/day
  % Inhibition: 1.3%
[3]; day 20, PM00104 0.9 and 5-FU 100 mg/kg/day
  % Inhibition: 1.3%
[3]; day 23, PM00104 0.9 and 5-FU 50 mg/kg/day
  % Inhibition: 4.1%
[3]; day 23, PM00104 0.9 and 5-FU 100 mg/kg/day
  % Inhibition: 4.1%
[3]; day 26, PM00104 0.9 and 5-FU 50 mg/kg/day
  % Inhibition: 16.3%
[3]; day 26, PM00104 0.9 and 5-FU 100 mg/kg/day
  % Inhibition: 16.3%
[3]; day 30, PM00104 0.9 and 5-FU 50 mg/kg/day
  % Inhibition: 24.7%
[3]; day 30, PM00104 0.9 and 5-FU 100 mg/kg/day
  % Inhibition: 24.7%
[3]; day 34, PM00104 0.9 and 5-FU 50 mg/kg/day
  % Inhibition: 46.9%
[3]; day 34, PM00104 0.9 and 5-FU 100 mg/kg/day
  % Inhibition: 46.9%
[3]; day 36, PM00104 0.9 and 5-FU 50 mg/kg/day
  % Inhibition: 53.5%
[3]; day 36, PM00104 0.9 and 5-FU 100 mg/kg/day
  % Inhibition: 53.5%
[3]; day 43, PM00104 0.9 and 5-FU 50 mg/kg/day
  % Inhibition: 73.1%
[3]; day 43, PM00104 0.9 and 5-FU 100 mg/kg/day
  % Inhibition: 73.1%
[3]; day 49, PM00104 0.9 and 5-FU 50 mg/kg/day
  % Inhibition: 63.3%
[3]; day 49, PM00104 0.9 and 5-FU 100 mg/kg/day
  % Inhibition: 63.3%
[3]; day 56, PM00104 0.9 and 5-FU 50 mg/kg/day
  % Inhibition: 49.4%
[3]; day 56, PM00104 0.9 and 5-FU 100 mg/kg/day
  % Inhibition: 49.4%
[3]; day 63, PM00104 0.9 and 5-FU 50 mg/kg/day
  % Inhibition: 18.7%
[3]; day 63, PM00104 0.9 and 5-FU 100 mg/kg/day
  % Inhibition: 18.7%
[4]; day 14
  % Inhibition: −0.9%
  % T/C on day: 100.9%
[4]; day 16
  % Inhibition: −40.3%
  % T/C on day: 140.3%
[4]; day 19
  % Inhibition: −26.1%
  % T/C on day: 126.1%
[4]; day 22
  % Inhibition: −16.5%
  % T/C on day: 116.5%
[4]; day 26
  % Inhibition: 7.8%
  % T/C on day: 92.2%
[4]; day 29
  % Inhibition: −6.3%
  % T/C on day: 106.3%
[4]; day 34
  % Inhibition: −16.8%
[4]; day 40
  % Inhibition: −26.3%
  % T/C on day: 126.3%
